Measurements from ChEMBL document CHEMBL1201862, “PubChem BioAssay data set” (2004).
Calls of active or inactive are those of the source.

Assays:
[1] = inhibitors of Vif binding to APOBEC3G peptide, primary screen, biochemical, TR-FRET, GST-Vif 1-94, biotin-A3G peptide, dose response retest (AID 1117319); type: functional;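 further: TR-FRET signal of purified GST-Vif binding a biotinylated A3G peptide; inhibitors lower the FRET signal by blocking Vif and A3G binding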
Protein Tat = Protein Tat (Human immunodeficiency virus type 1 group M subtype B (isolate HXB2)(HIV-1), UniProt P04608); type: functional;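 further: tat binding to TAR RNA read out by fluorescence polarization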
Protein Tat, sequence (P04608 whole entry): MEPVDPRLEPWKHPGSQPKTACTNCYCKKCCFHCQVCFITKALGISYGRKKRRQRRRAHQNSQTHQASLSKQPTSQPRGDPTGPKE

[2] = P. falciparum late gametocyte killing, dose response, luminescence (AID 1117278); type: functional, cell-based;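 further: gametocytes exposed to compound for 24 hours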
[3] = Jurkat T cell cytotoxicity, dose response, cytotoxicity control for P. falciparum gametocyte viability project, luminescence (AID 1117277); type: functional, cell-based;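 further: potency reflects loss of cellular ATP meaning fewer viable cells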
[4] = HeLa 4N DNA content increase, dose response, cell-based, IC50 (AID 1117351); type: functional
[5] = SNU-C1 cell viability reduction, dose response, CellTiter-Glo luminescence (AID 1117323); type: functional, cell-based
[6] = Dose-response inhibition of insulin secretion in a rat insulinoma line at 5 mM glucose (AID 1117331); type: functional, cell-based; settings: INS-1E
[7] = HCT116 cell viability decrease, GSK3B pretreatment – CellTiter-Glo, IC50, dose response (AID 1117339); type: functional; settings: HCT-116
[8] = cytotoxicity toward Colo320 cells – cell-based, CellTiter-Glo luminescence, IC50, dose response (AID 1117334); type: functional; settings: COLO 320
[9] = half-maximal inhibitory concentration for glucagon-like peptide-1 release, STC-1 cell line, dose-response (AID 1117345); type: functional, cell-based
[10] = CellTiter-Glo luminescent dose response of DLD-1 viability loss (AID 1117352); type: functional
[11] = cytotoxicity toward HCT116 cells – cell-based, CellTiter-Glo luminescence, IC50, dose response (AID 1117332); type: functional; settings: HCT-116
[12] = cytotoxicity toward HT-29 cells – cell-based, CellTiter-Glo luminescence, IC50, dose response (AID 1117330); type: functional
[13] = Glucagon-like peptide 1 release potency, NCI-H716 cell line, dose-response, half-maximal inhibitory concentration (AID 1117344); type: functional, cell-based
[14] = Concentration-dependent survival of SW480 colon cancer line, luminescence detection with CellTiter-Glo, half-maximal inhibitory concentration (AID 1117338); type: functional
[15] = HeLa 2N DNA content increase, dose response, cell-based, IC50 (AID 1117349); type: functional
[16] = RKO cell viability reduction, dose response, CellTiter-Glo luminescence (AID 1117322); type: functional
[17] = A549 cell cytotoxicity, dose response, cytotoxicity control, 24 h, CellTiter-Glo luminescence, cherry-picks (AID 1053115); type: functional, cell-based; settings: A549, 24 h
[18] = HEK293 cell viability, dose response, counter-screen for EBV LMP1 inhibitor project, dry powder, set 2 (AID 624374); type: functional
[19] = cytotoxicity in OV-90 ovarian cancer cells, dose response, PAX8 inhibitor project, cell-based, plate reader, dry powder, SA8 (AID 743149); type: functional
[20] = cytotoxicity dependent on PAX8, dose response, cell-based, plate reader, dry powder (AID 743049); type: functional
[21] = PAX2 cell-based inhibition, dose response, selectivity assay for PAX8 inhibitor project, plate reader, dry powder samples (AID 743048); type: functional;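 further: HEK293 cells carrying a WT1 promoter luciferase reporter driven by expressed Pax2; potency is for inhibition of Pax2 driven reporter signal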
[22] = HEK293T cytotoxicity, dose response, cytotoxicity control for miR-122 modulator project, cell-based, inhibitor set, cherry-pick, set 2 (AID 720697); type: functional
Paired box protein Pax-8 = Paired box protein Pax-8 (Homo sapiens, UniProt Q06710); assay: inhibitors of PAX8-driven TPO luciferase reporter, dose response, RMG-I cells, cherry-pick (AID 687027); type: functional, cell-based;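 further: luciferase reporter driven by Pax8 target thyroperoxidase promoter measured by SteadyGlo luminescence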
Paired box protein Pax-8, sequence (Q06710 whole entry): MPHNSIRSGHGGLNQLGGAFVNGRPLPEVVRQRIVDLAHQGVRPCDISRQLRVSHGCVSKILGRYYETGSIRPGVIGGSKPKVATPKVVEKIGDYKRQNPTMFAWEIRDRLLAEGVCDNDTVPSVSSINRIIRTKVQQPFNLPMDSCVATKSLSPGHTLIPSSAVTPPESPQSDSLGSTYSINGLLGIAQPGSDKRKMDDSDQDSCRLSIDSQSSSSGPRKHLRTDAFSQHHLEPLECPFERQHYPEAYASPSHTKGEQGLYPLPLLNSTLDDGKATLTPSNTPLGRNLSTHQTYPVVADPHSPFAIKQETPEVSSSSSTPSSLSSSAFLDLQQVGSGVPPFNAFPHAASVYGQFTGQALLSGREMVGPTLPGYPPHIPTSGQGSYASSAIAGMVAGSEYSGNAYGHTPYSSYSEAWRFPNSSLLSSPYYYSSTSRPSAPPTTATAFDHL

[23] = A549 cell cytotoxicity, dose response, CellTiter-Glo luminescence, dry powder, set 17 (AID 1117284); type: functional, cell-based
[24] = PAX5 activity inhibitors, dose response, selectivity assay for PAX8 inhibitor project, cell-based, plate reader, dry powder samples (AID 743047); type: functional;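 further: HEK293 cells carrying a Pax5 driven CD19 promoter luciferase reporter; potency of inhibitors that lower reporter luminescence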
[25] = miR-122 activators in hepatoma reporter cells, dose response, cell-based, Huh7 psiCHECK-miR122, Renilla luciferase, cherry-picked (AID 651956); type: functional;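 further: huh7 hepatoma cells stably carrying a psiCHECK-2 miR-122 sensor plasmid; renilla luciferase signal reporting endogenous miR-122 activity after 48 h compound exposure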
[26] = target: RNA-editing ligase 1, mitochondrial (Trypanosoma brucei brucei, UniProt P86926); assay: TbREL1 ligase inhibitors, dose response, biochemical, fluorescence, Trypanosoma brucei (AID 1117295); type: functional
RNA-editing ligase 1, mitochondrial, sequence (P86926 whole entry): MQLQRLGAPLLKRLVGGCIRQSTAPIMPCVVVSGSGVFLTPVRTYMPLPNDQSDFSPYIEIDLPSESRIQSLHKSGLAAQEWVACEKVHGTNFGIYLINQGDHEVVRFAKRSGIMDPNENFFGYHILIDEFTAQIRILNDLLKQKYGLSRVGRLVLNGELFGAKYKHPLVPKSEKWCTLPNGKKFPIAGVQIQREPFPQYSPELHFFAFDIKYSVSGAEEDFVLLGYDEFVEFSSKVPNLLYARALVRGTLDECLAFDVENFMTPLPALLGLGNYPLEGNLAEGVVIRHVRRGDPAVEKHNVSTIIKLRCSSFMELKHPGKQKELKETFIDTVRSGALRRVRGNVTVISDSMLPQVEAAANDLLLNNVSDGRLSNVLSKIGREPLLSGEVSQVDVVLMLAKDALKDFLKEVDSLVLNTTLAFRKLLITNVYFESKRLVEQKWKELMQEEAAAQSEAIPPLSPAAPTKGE

For `CCOc1ccccc1N1C(=O)CC(Nc2ccc(N3CCOCC3)cc2)C1=O` (stereo not drawn), which IC50 [1] is on record?
Its IC50 is > 50.6 µM (active).

And the IC50 (Protein Tat)?
The IC50 was 16.3 µM (inconclusive).

Which results are given for `COc1ccccc1OCCOCCOc1ccccc1Cl`?
IC50 [2]: > 109 µM (inactive); IC50 [3]: > 83.3 µM (inactive)

Which results are given for `CN1CCCC(CC2c3ccccc3Sc3ccccc32)C1` (stereo not drawn)?
IC50 [4]: > 10 µM (inactive); IC50 [5]: 15.1 µM (inactive); IC50 [6]: > 11.1 µM (inactive); IC50 [7]: 8.68 µM (inactive); IC50 [8]: > 20 µM (inactive); IC50 [9]: > 40 µM (inactive); IC50 [10]: > 20 µM (inactive); IC50 [11]: > 20 µM (inactive); IC50 [12]: 6.43 µM (inactive); IC50 [13]: > 40 µM (inactive); IC50 [14]: 4.7 µM (active); IC50 [15]: > 10 µM (inactive); IC50 [16]: 3.49 µM (active)

What does the source list for `C[C@@H]1CN([C@@H](C)CO)S(=O)(=O)c2ccc(C#C[C@@H](C)O)cc2O[C@H]1CN(C)Cc1ccc(-c2ccccc2)cc1`?
AC50 [17]: 53.4 µM (active); AbsAC35 [18]: 211.64 µM; AC50 [19]: 17.7 µM (active); AC50 [20]: > 70 µM (inactive); AC50 [21]: > 70 µM (inactive); AC50 [22]: 8.22 µM (active); AC50 (Paired box protein Pax-8): 6.61 µM (active); AC50 [23]: 46.1 µM (active); AC50 [24]: 41.3 µM (active); AC50 [25]: 20.3 µM (active)

With `COC(=O)C1=C(C)N(Cc2ccc(C(F)(F)F)cc2)C(NCc2ccccc2C(F)(F)F)=NC1c1cccc(Cl)c1` (stereo not drawn) as the compound, how does the IC50 [26] read?
Its IC50 is > 96.6 µM (inactive).
